In patent publication US20180037568A1, “MODULATORS OF METHYL MODIFYING ENZYMES, COMPOSITIONS AND USES THEREOF” (Constellation Pharmaceuticals, Inc., priority 2015, published 2018):

Tests used:
H3K27me3 mark = assay: H3K27me3 Alpha Hela Assay (AlphaLISA); assay type: cell-based; conditions: Hela cells, 72 hrs; read-out: EZH2 Cell H3K27me3 Alpha HeLa (EC50 K27me3)
How it was run: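 HeLa cells at 1,000/well were treated with ten 3-fold compound doses for 72 h at 37 °C. After lysis and histone extraction, H3K27me3 was detected by AlphaLISA with anti-K27me3 acceptor beads, biotinylated anti-H3 (C-ter) antibody (3 nM final) and streptavidin donor beads (20 μg/mL final). Signals were normalized to DMSO and curve-fitted for EC50.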

[1] = In vitro metabolism, mouse liver microsomes; assay type: in vitro ADME; conditions: 10 μM compound, 0.7 mg protein/mL, read-out: intrinsic clearance
Method: (§1) The in vitro metabolism of compound 21 was evaluated by disappearance of compound in mouse, rat, dog and human liver microsomes at 10 μM compound concentration.
(§2) Data is expressed in μL/min/mg protein.

[2] = In vitro metabolism, dog liver microsomes; assay type: in vitro ADME; conditions: 10 μM compound, 0.7 mg protein/mL, read-out: intrinsic clearance
Method: as §1, §2

Structure (SMILES): COc1cc(C)[nH]c(=O)c1CNC(=O)c1c(C)n(C(C)C2CCN(C)C(C(F)(F)F)C2)c2ccccc12 (single isomer, unassigned) [Compound 21, N-((4-methoxy-6-methyl-2-oxo-1,2-dihydropyridin-3-yl)methyl)-2-methyl-1-(1-(1-methyl-2-(trifluoromethyl)piperidin-4-yl)ethyl)-1H-indole-3-carboxamide]
- EC50 (H3K27me3 mark): < 400 nM
- microsomal CLint at 10 μM [1]: 55 µL/min/mg
- microsomal CLint at 10 μM [2]: 35 µL/min/mg
